In US20250051282A1, “COMPOUNDS FOR TREATING POLYQ-RELATED NEURODEGENERATIVE DISORDERS” (HANGZHOU JIJING PHARMACEUTICAL TECHNOLOGY LIMITED, priority 2021, published 2025):
Where a name gives a salt, the structure may show the parent alone.

The compounds below were run on ATXN1(60Q) (assay: Daoy-ATXN1(60Q)-mATXN1 MSD assay (CTG normalized)). Conditions: Daoy-Flag-ATXN1(60Q) stable cells, compound added Day 2, lysis Day 3, final DMSO 0.3%, read-out: Daoy-ATXN1(60Q)-mATXN1 MSD (CTG normalized) DC50.
Assay type: cell-based
Description: Protocol for MSD Assay: Daoy-ATXN1(600)-mATXN1 MSD (CTG normalized)
The Flag-ATXN1(60Q) gene is synthesized by Genescript and cloned into the pLVX-IRES-Puro vector (Takarabio, catalog No. 632183) using EcoRI/BamHI restriction enzyme sites. Lentivirus is made by transfecting HEK293T cells with pLVX-IRES-Puro-Flag-ATXN1(60Q) plasmids and packaging plasmids psPAX2 and pMD2.G at 4:3:1 ratio (8:6:[…], respectively) in 10 cm plates, and are harvested at 48 hours post transfection. Daoy cells (ATCC catalog No. HTB-186) seeded in T25 flasks are infected with the lentivirus in the presence of 8 µg/mL polybrene (Sigma, TR-1003-G) for 24 hours. 48 hours post infection, the cells are selected using 0.5 […] (Sigma, P8833) for more than 5 days until all cells in the uninfected group die. The expression of Flag-ATXN1(60Q) is verified by anti-Flag immunoblot using anti-Flag antibody (Sigma, F1804-200UG, M2).
As explained above, Daoy-Flag-ATXN1(60Q) cells are prepared as a stable cell line by infecting Daoy cells with lentivirus. The media for the cells is EMEM (ATTC, 30-2008) with 10% fetal bovin serum (FBS).
On Day 1, the Daoy-Flag-ATXN1(60Q) cells are seeded in a 96 well plate at a concentration of 1.2×10^4/well. On Day 2, the cells are treated with test compounds at test concentrations (compounds are serially diluted with DMSO to obtain test concentrations, such that final DMSO concentration is 0.3%). On Day 3, the cells are washed with 100 μL of phosphate-buffered saline (PBS) per well, and then 30 μL of radioimmuno-precipitation assay (RIPA) buffer (with protease and phosphatase inhibitor cocktail) is added to each well.
The well plate is then cooled on ice for 30 minutes in order to complete lysis, and MSD samples are prepared using 10 μL of Daoy-Flag-ATXN1-60Q lysate and 90 μL of RIPA buffer with gentle mixing. Each MSD sample has a total volume of 100 μL, and is used immediately or stored at −80° C.
A standard Meso Scale Discovery (MSD) plate is coated with anti-Flag (Sigma, F1804-200UG, M2) in PBS at 1:500 dilution ratio and 40 µL/well, and is incubated at 4° C. overnight with shaking at 600 rpm. Then, the MSD plate is washed 3 times with 150 µL/well of 1X TBST (tris-buffered saline (TBS) with Tween 20) buffer, and the MSD plate is blocked with 150 μL of blocking buffer [3% Blocker A in 1X TBST, (3 g Blocker A per 100 mL 1X TBST)] and shaken for 1 hour at 600 rpm at room temperature. Then, the MSD plate is washed three times with 150 μL/well of 1X TBST. Next, the diluted lysate samples (from Sample Preparation above) are added to the MSD plate at 25 μL/well, and the MSD plate is shaken at 600 rpm for 1 hour at room temperature. Then the MSD plate is washed 3 times with 150 μL/well of 1X TBST.
Detection antibody anti-Ataxin 1 (G-bio, ITA1916) (1:500), which is prepared in antibody detection buffer (1% Blocker A in 1X TBST), is then added to the MSD plate at 25 µL/well, and the MSD plate is shaken at 600 rpm for 1 hour at room temperature. The MSD plate is then washed three times with 150 μL/well of 1X TBST. Next, a secondary detection antibody, Goat anti-rabit (GAR) with SULFO-TAG (1:500), which is prepared in antibody detection buffer (1% Blocker A in 1X TBST), is added at 25 μL/well and the MSD plate is shaken at 600 rpm for 1 hour at room temperature. Then the MSD plate is washed 3 times with 150 μL/well of 1X TBST, and 2X MSD reading buffer is added at 150 μL/well (diluted from 4x MSD reading buffer with water). Finally, the signal from each well is measured on the MSD Meso QuickPle SQ120 Plate Reader. DC50 data is calculated using collaborate drug discovery (CDD) software (https://www.collaborativedrug.com/about).

| Compound | DC50 |
| --- | --- |
| N/C(=C1\C(=O)Nc2ccc(Br)cc21)c1ncccn1 [Example 78, (Z)-3-(amino (pyrimidin-2-yl)methylene)-5-bromoindolin-2-one] | > 30 µM |
| O=C1Nc2ccc(OC(F)(F)F)cc2/C1=C(/NCCO)c1cccc(O)c1 [Example 18, (Z)-3-(((2-hydroxyethyl)amino)(3-hydroxyphenyl)methylene)-5-(trifluoromethoxy) indolin-2-one] | < 10 µM |
| N/C(=C1\C(=O)Nc2ccc(Br)cc21)c1cc(C(F)F)ccn1 [Example 75, (Z)-3-(amino(4-(difluoromethyl)pyridin-2-yl)methylene)-5-bromo indolin-2-one] | 10 to 30 µM |
| O=C1Nc2ccc(Br)cc2/C1=C(/NCCCF)c1cccc(C(F)F)c1 [Example 20, (Z)-5-bromo-3-((3-(difluoromethyl)phenyl)((3-fluoropropyl)amino)methylene) indolin-2-one] | < 10 µM |
| NCCN/C(=C1\C(=O)Nc2ccc(Br)cc21)c1ccccc1 [Example 28, (Z)-3-(((2-aminoethyl)amino) (phenyl)methylene)-5-bromoindolin-2-one] | 10 to 30 µM |
| Nc1cccc(/C(NCCCF)=C2/C(=O)Nc3ccc(Br)cc32)c1 [Example 58, (Z)-3-((3-aminophenyl)((3-fluoropropyl)amino)methylene)-5-bromoindolin-2-one] | < 10 µM |
| N/C(=C1\C(=O)Nc2ccc(Br)cc21)c1cncc(O)c1 [Example 84, (Z)-3-(amino(5-hydroxypyridin-3-yl)methylene)-5-bromoindolin-2-one] | < 10 µM |
| O=C1Nc2ccc(Br)cc2/C1=C(/NC1CCNC1)c1cccc(O)c1 (stereo not shown) [Example 24, (Z)-5-bromo-3-((3-hydroxyphenyl) (pyrrolidin-3-ylamino)methylene) indolin-2-one formate] | > 30 µM |
| CC(=O)NCCOCCOCCOCCN/C(=C1\C(=O)Nc2ccc(Br)cc21)c1cccc(O)c1 [Example 61, (Z)—N-(1-(5-bromo-2-oxoindolin-3-ylidene)-1-(3-hydroxyphenyl)-5,8,11-trioxa-2-azatridecan-13-yl)acetamide] | 10 to 30 µM |
| CC(=C1C(=O)Nc2ccc(C(F)(F)F)cc21)c1cccc(O)c1 [Example 95, 3-(1-(3-Hydroxyphenyl)ethylidene)-5-(trifluoromethyl) indolin-2-one] | < 10 µM |
| O=C1Nc2ccc(Br)cc2/C1=C(/NC1CC1)c1cccc(O)c1 [Example 7, (Z)-5-bromo-3-((cyclopropylamino) (3-hydroxyphenyl)methylene)indolin-2-one] | < 10 µM |
| N/C(=C1\C(=O)Nc2ccc(Br)cc21)c1ccncc1 [Example 77, (Z)-3-(amino (pyridin-4-yl)methylene)-5-bromoindolin-2-one] | < 10 µM |
| CN1CC(N/C(=C2\C(=O)Nc3ccc(Br)cc32)c2cccc(O)c2)C1 [Example 9, (Z)-5-bromo-3-((3-hydroxyphenyl)((1-methylazetidin-3-yl)amino)methylene) indolin-2-one] | < 10 µM |
| CN1CCC(N/C(=C2\C(=O)Nc3ccc(Br)cc32)c2cccc(O)c2)CC1 [Example 15, (Z)-5-bromo-3-((3-hydroxyphenyl)((1-methylpiperidin-4-yl)amino)methylene) indolin-2-one] | < 10 µM |
| Cn1cc(N/C(=C2\C(=O)Nc3ccc(Br)cc32)c2ccccc2)c(C(F)(F)F)n1 [Example 51, (Z)-5-bromo-3-(((1-methyl-3-(trifluoromethyl)-1H-pyrazol-4-yl)amino)(phenyl)methylene)indolin-2-one] | > 30 µM |
| O=C1Nc2ccc(Br)cc2/C1=C(/Nc1ccnnc1)c1ccc(F)c(F)c1 [Example 42, (Z)-5-bromo-3-((3,4-difluorophenyl) (pyrazin-4-ylamino)methylene) indolin-2-one] | > 30 µM |
| O=C1Nc2ccc(Br)cc2/C1=C(/NCCCF)c1cccc(O)c1 [Example 6, (Z)-5-bromo-3-(((3-fluoropropyl)amino) (3-hydroxyphenyl)methylene)indolin-2-one] | < 10 µM |
| O=C1Nc2ccc(Br)cc2/C1=C(/NC1CCNCC1)c1cccc(O)c1 [Example 25, (Z)-5-bromo-3-((3-hydroxyphenyl) (piperidin-4-ylamino)methylene) indolin-2-one] | < 10 µM |
| O=C1Nc2ccc(Br)cc2/C1=C(/Nc1cccnn1)c1cccc(O)c1 [Example 73, (Z)-5-bromo-3-((3-hydroxyphenyl) (pyridazin-3-ylamino)methylene)indolin-2-one] | < 10 µM |
| O=C1Nc2ccc(Br)cc2/C1=C(/Nc1ccnnc1)c1cccc(F)c1 [Example 40, (Z)-5-bromo-3-((3-fluorophenyl)(pyridazin-4-ylamino)methylene) indolin-2-one] | < 10 µM |
| C/C(=C1\C(=O)Nc2ccc(Br)cc21)c1cccc(O)c1 [Example 85, (E)-5-bromo-3-(1-(3-hydroxyphenyl)ethylidene)indolin-2-one] | 10 to 30 µM |
| NC(=C1C(=O)Nc2ccc(Br)cc21)C1COc2ccccc2O1 (stereo not shown) [Example 79, 3-(Amino(2,3-dihydrobenzo[b] [1,4]dioxin-2-yl)methylene)-5-bromoindolin-2-one] | > 30 µM |
| O=C1Nc2ccc(Br)cc2/C1=C(/NC1CNC1)c1cccc(O)c1 [Example 26, (Z)-3-((azetidin-3-ylamino)(3-hydroxyphenyl)methylene) 5-bromindolin-2-one] | < 10 µM |
| Cn1cc(N/C(=C2\C(=O)Nc3ccc(Br)cc32)c2cccc(F)c2)cn1 [Example 21, (Z)-5-bromo-3-((3-fluorophenyl)((1-methyl-1H-pyrazol-4-yl)amino)methylene) indolin-2-one] | > 30 µM |
| O=C1Nc2ccc(Br)cc2/C1=C(/NC1CCC1)c1cccc(O)c1 [Example 8, (Z)-5-bromo-3-((cyclobutylamino) (3-hydroxyphenyl)methylene)indolin-2-one] | < 10 µM |
| O=C1Nc2ccc(Br)cc2/C1=C(/NC1CNC1)c1ccccc1 [Example 35, (Z)-3-((azetidin-3-ylamino)(phenyl)methylene)-5-bromo indolin-2-one] | < 10 µM |
| Cn1cc(N/C(=C2\C(=O)Nc3ccc(Br)cc32)c2ccccc2)cn1 [Example 22, (Z)-5-bromo-3-(((1-methyl-1H-pyrazol-4-yl)amino)(phenyl)methylene)indolin-2-one] | 10 to 30 µM |
| Cn1cc(N/C(=C2\C(=O)Nc3ccc(Br)cc32)c2ccc(F)c(F)c2)cn1 [Example 43, (Z)-5-bromo-3-((3,4-difluorophenyl)((1-methyl-1H-pyrazol-4-yl)amino)methylene) indolin-2-one] | > 30 µM |
| O=C1Nc2ccc(Br)cc2/C1=C(/Nc1ccnnc1)c1cccc(O)c1 [Example 38, (Z)-5-bromo-3-((3-hydroxyphenyl)(pyridazin-4-ylamino)methylene) indolin-2-one] | < 10 µM |
| NCCN/C(=C1\C(=O)Nc2ccc(Br)cc21)c1cccc(O)c1 [Example 27, (Z)-3-(((2-aminoethyl)amino)(3-hydroxyphenyl)methylene)-5-bromo indolin-2-one] | < 10 µM |

Same assay, conditions: read-out: Daoy-ATXN1(60Q)-mATXN1 MSD (CTG normalized) DC50, Daoy-Flag-ATXN1(60Q) stable cells, compound added Day 2, lysis Day 3, final DMSO 0.3%

| Compound | DC50 |
| --- | --- |
| CCCN/C(=C1\C(=O)Nc2ccc(Br)cc21)c1cccc(O)c1 [Example 5, (Z)-5-bromo-3-((3-hydroxyphenyl) (propylamino)methylene) indolin-2-one] | < 10 µM |
